Molecular target: GzmB (Homo sapiens, UniProt P10144)
Experiment: Inhibition of fibronectin cleavage by GzmB
Assay type: biochemical
Details: 20 nM granzyme B, Hilyte Fluor 488 labeled fibronectin, 30° C.
Experimental: Black, 96 well high-binding assay plates (Griener Bio-one) were treated overnight at 4° C. with 40 uL of 8 ug/mL Hilyte Fluor 488 labeled Fibronectin (Cytoskeleton, Inc). After fibronectin coating, plates were washed 3 times in buffer (20 mM Tris-HCl, pH 7.4, 20 mM NaCl) then once with granzyme B assay buffer (50 mM HEPES, pH 7.5, 0.1% CHAPS). After washing, 50 uL of granzyme B assay buffer was added to each fibronectin-coated well. In a separate non-binding 96 well assay plate 5 uL of 20× inhibitor serial dilution stocks were added to 45 uL of 2.22×GzmB mix to establish inhibition (enzyme/inhibitor mixes were all prepared in granzyme B assay buffer and were incubated first at room temperature for 20 minutes, then at 30° C. for another 10 minutes). After incubation, 50 uL of this 2× enzyme/inhibitor mix was added to the corresponding coated well to initiate fibronectin cleavage (20 nM final granzyme B concentration, 8-point inhibitor dilution series starting at 50 uM). The assay was conducted at 30° C. in the TECAN plate reader (TECAN INFINITE® M1000 Pro), which was programmed to monitor the kinetic fluorescence polarization signal (filter set Ex/Em 470 nm/527 nm) with readings taken every minute, for 1 hour. Proteolytic activity was evaluated as the rate of fluorescence enhancement in the parallel emission over the linear range of the reaction. % Inhibition values were calculated from assay controls and the resulting date is shown in Table 2.

Chain of GzmB (P10144 21-247): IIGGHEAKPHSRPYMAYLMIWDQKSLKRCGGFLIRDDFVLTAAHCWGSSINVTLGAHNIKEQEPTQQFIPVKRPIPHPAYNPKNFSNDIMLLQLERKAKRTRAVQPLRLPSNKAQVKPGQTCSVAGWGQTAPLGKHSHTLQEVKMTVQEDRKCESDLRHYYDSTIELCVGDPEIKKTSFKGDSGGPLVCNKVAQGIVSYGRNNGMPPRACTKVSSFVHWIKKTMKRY

inhibition at 0.62 µM (0.62 uM inhibitor, read-out: Percent Inhibition at Inhibitor Concentration 0.62 uM): 60%
inhibition at 5.56 µM (5.56 uM inhibitor, read-out: Percent Inhibition at Inhibitor Concentration 5.56 uM): 87%
inhibition at 50 µM (50 uM inhibitor, read-out: Percent Inhibition at Inhibitor Concentration 50 uM): 95%
Structure (SMILES): CC[C@H](C)[C@H](NC(=O)CCC(=O)O)C(=O)NCC(=O)N1c2ccccc2C[C@H]1C(=O)NC(C=O)CC(=O)O (stereo in doubt) [Compound C1, (S)-3-{[1-{2-[(2S,3S)-2-(3-carboxypropanamido)-3-methylpentanamido]acetyl}-2,3-dihydro-1H-indol-2-yl]formamido}-4-oxobutanoic acid]

Source: US9458192B1, “Covalent granzyme B inhibitors” (viDA Therapeutics Inc., priority 2014, dated 2016)
